Common to all, as to type: cell-based
Test [1] concerns MCF7 cells (ATCC #HTB-22). The experiment in a line: Cellular growth inhibition assay, MCF7 cells purchased from ATCC. As to conditions: Homo sapiens, MCF7, 144 h, Table 8-A; MCF7 cells purchased from ATCC; six days; CellTiter-Glo; read-out: GI50. Put shortly: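 GI50 values come from a four-parameter fit of CellTiter-Glo 2.0 luminescence after six days of compound exposure at 37° C. Seeding density depended on the source: 225 cells/well for ECACC MCF7, 1,500 for ATCC. Medium was RPMI 1640 with 10% FBS and 0.2 U/ml insulin.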
A general note: Cellular ATP, detected with luciferase, serves as a proxy for viable cell number.

Test [2] deals with T-Rex 293 cells having increased expression of estrogen receptor alpha protein. The experiment in a line: Cellular growth inhibition assay, T-Rex 293 cells, (+) doxycycline. The note with it: T-REx-293, 72 h, Table 7-A; T-Rex 293 cells with doxycycline (increased ERα expression); 72 hours; CellTiter-Glo; read-out: (+) Dox GI50. An outline of the steps:
(§1)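 Cells of an inducible ERα-expressing T-Rex 293 clone are seeded in charcoal-dextran FBS medium with or without 3 ng/mL doxycycline, then treated after 24 h with compound dilutions (0.5% DMSO) for 72 h. Growth inhibition is measured by CellTiter-Glo luminescence and expressed as GI50.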

Test [3] has as its system T-Rex 293 cells lacking increased expression of estrogen receptor alpha protein. The experiment in a line: Cellular growth inhibition assay, T-Rex 293 cells, (−) doxycycline. As to conditions: T-REx-293, 72 h, Table 7-A; T-Rex 293 cells without doxycycline (lacking increased ERα expression); 72 hours; CellTiter-Glo; read-out: (−) Dox GI50. Put shortly: as §1

Structures are written as SMILES.

A word on the GI50: it is the concentration at which growth is held to half of that of the control.

In the case of `Cc1sc2c(c1C)C(c1ccc(N3CC(CN4CC(CC5CN(c6ccc(C7=C(c8ccccc8)CCCc8cc(C(=O)O)ccc87)cc6)C5)C4)C3)cc1)=N[C@@H](C)c1nnc(C)n1-2` [IV-36], the values for the GI50 in test [1], in test [2] and in test [3] were less than 50 nM, less than 50 nM and 50 to 500 nM, respectively.

With `Cc1sc2c(c1C)C(c1ccc(N3CCC(O)(CN4CCN(c5ccc(C6=C(c7ccc(F)cc7)CCCc7cc(C(=O)O)ccc76)cc5)CC4)CC3)cc1)=N[C@@H](C)c1nnc(C)n1-2` [IV-37], the GI50 in test [1] was less than 50 nM; in test [2] it was less than 50 nM; in test [3], 500 to 2500 nM.

As for `Cc1sc2c(c1C)C(c1ccc(N3CC(CN4CCN(CC5CN(c6ccc(C7=C(c8ccc(F)cc8)CCCc8cc(C(=O)O)ccc87)cc6)C5)CC4)C3)cc1)=N[C@@H](C)c1nnc(C)n1-2` [IV-38], the values for the GI50 in test [1], in test [2] and in test [3] were less than 50 nM, less than 50 nM and 500 to 2500 nM, respectively.

Take `Cc1sc2c(c1C)C(c1ccc(N3CCC(CN4CCN(c5ccc(C6=C(c7ccccc7)CCCc7cc(O)ccc76)cc5)CC4)CC3)cc1)=N[C@@H](C)c1nnc(C)n1-2` [IV-39]: the GI50 in test [1] was 50 to 500 nM; in test [2], less than 50 nM; in test [3] it was greater than 2500 nM.

With `Cc1sc2c(c1C)C(c1ccc(N3CCC(CN4CCN(c5ccc(C6=C(c7ccccc7Cl)CCCc7cc(O)ccc76)cc5)CC4)CC3)cc1)=N[C@@H](C)c1nnc(C)n1-2` [IV-40], the results for the GI50 in test [1], in test [2] and in test [3] were less than 50 nM, less than 50 nM and greater than 2500 nM, respectively.

`Cc1sc2c(c1C)C(c1ccc(N3CC4(CC(CN5CCC(c6ccc(C7=C(c8ccccc8)CCCc8cc(C(=O)O)ccc87)cc6)CC5)C4)C3)cc1)=N[C@@H](C)c1nnc(C)n1-2` [IV-41]: the GI50 in test [1] was less than 50 nM; in test [2], less than 50 nM; in test [3] it was 50 to 500 nM.

Take `Cc1sc2c(c1C)C(c1ccc(N3CC(CC4(O)CN(CC5CN(c6ccc(C7=C(c8ccccc8)CCCc8cc(C(=O)O)ccc87)cc6)C5)C4)C3)cc1)=N[C@@H](C)c1nnc(C)n1-2` [IV-42]: the GI50 is less than 50 nM in test [1], less than 50 nM in test [2] and 50 to 500 nM in test [3].

Consider `Cc1sc2c(c1C)C(c1ccc(N3CC(O)(CC4CN(CC5CN(c6ccc(C7=C(c8ccccc8)CCCc8cc(C(=O)O)ccc87)cc6)C5)C4)C3)cc1)=N[C@@H](C)c1nnc(C)n1-2` [IV-43], for which the GI50 in test [1] was less than 50 nM; in test [2], less than 50 nM; in test [3], 50 to 500 nM.

With `Cc1sc2c(c1C)C(c1ccc(N3CC4(CCC(CN5CCC(c6ccc(C7=C(c8ccccc8)CCCc8cc(C(=O)O)ccc87)cc6)CC5)CC4)C3)cc1)=N[C@@H](C)c1nnc(C)n1-2` [IV-44], the GI50 in test [1] was less than 50 nM; in test [2] it was less than 50 nM; in test [3], 500 to 2500 nM.

For `Cc1sc2c(c1C)C(c1ccc(N3CC(O)(CN4CCN(CC5CN(c6ccc(C7=C(c8ccccc8)CCCc8cc(C(=O)O)ccc87)cc6)C5)CC4)C3)cc1)=N[C@@H](C)c1nnc(C)n1-2` [IV-45], the GI50 in test [1], in test [2] and in test [3] was less than 50 nM throughout.

Take `Cc1sc2c(c1C)C(c1ccc(C3CN(CC4(O)CCN(CC5CN(c6ccc(C7=C(c8ccccc8)CCCc8cc(C(=O)O)ccc87)cc6)C5)CC4)C3)cc1)=N[C@@H](C)c1nnc(C)n1-2` [IV-46]: the GI50 was 50 to 500 nM in test [1], less than 50 nM in test [2] and 500 to 2500 nM in test [3].

With `Cc1sc2c(c1C)C(c1ccc(N3CC4(CCC(CN5CCC(c6ccc(C7=C(c8ccccc8)CCCc8cc(O)ccc87)cc6)CC5)CC4)C3)cc1)=N[C@@H](C)c1nnc(C)n1-2` [IV-47], the GI50 in test [1] was less than 50 nM; in test [2], less than 50 nM; in test [3], 500 to 2500 nM.

For `Cc1sc2c(c1C)C(c1ccc(N3CCC(CN4CCN(c5ccc(C6=C(c7ccccc7Cl)CCCc7cc(C(=O)O)ccc76)c(F)c5)CC4)CC3)cc1)=N[C@@H](C)c1nnc(C)n1-2` [IV-48], the values for the GI50 in test [1], in test [2] and in test [3] were less than 50 nM, less than 50 nM and 500 to 2500 nM, respectively.

Regarding `Cc1sc2c(c1C)C(c1ccc(N3CCC(CN4CCN(c5ccc(C6=C(c7ccccc7Cl)CCCc7cc(C(=O)O)ccc76)c(F)c5)CC4)CC3)cc1)=N[C@@H](Cc1ncco1)c1nnc(C)n1-2` [IV-49], the GI50 was less than 50 nM in test [1], less than 50 nM in test [2] and 500 to 2500 nM in test [3].

For `Cc1sc2c(c1C)C(c1ccc(N3CC4(CC(CN5CCN(c6ccc(C7=C(c8ccccc8)CCCc8cc(O)ccc87)cc6)CC5)C4)C3)cc1)=N[C@@H](C)c1nnc(C)n1-2` [IV-50], the GI50 in test [1] is less than 50 nM; in test [2], less than 50 nM; in test [3], 500 to 2500 nM.

Take `Cc1sc2c(c1C)C(c1ccc(N3CCC(O)(CN4CCN(c5ccc(C6=C(c7cccc(Cl)c7)CCCc7cc(C(=O)O)ccc76)cc5)CC4)CC3)cc1)=N[C@@H](C)c1nnc(C)n1-2` [IV-51]: the GI50 is less than 50 nM in test [1], less than 50 nM in test [2] and 500 to 2500 nM in test [3].

Consider `Cc1sc2c(c1C)C(c1ccc(N3CCC(O)(CN4CCN(c5ccc(C6=C(c7ccc(Cl)c(Cl)c7)CCCc7cc(C(=O)O)ccc76)cc5)CC4)CC3)cc1)=N[C@@H](C)c1nnc(C)n1-2` [IV-52], for which the GI50 in test [1] was in the range of 50 to 500 nM; in test [2], 50 to 500 nM; in test [3] it was 500 to 2500 nM.

In the case of `Cc1sc2c(c1C)C(c1ccc(N3CCC(O)(CN4CCN(c5ccc(C6=C(c7cccc(Cl)c7Cl)CCCc7cc(C(=O)O)ccc76)cc5)CC4)CC3)cc1)=N[C@@H](C)c1nnc(C)n1-2` [IV-53], the results for the GI50 in test [1], in test [2] and in test [3] were less than 50 nM, less than 50 nM and 500 to 2500 nM, respectively.

As for `Cc1sc2c(c1C)C(c1ccc(N3CC(CN4CCN(CC5CN(c6ccc(C7=C(c8ccccc8Cl)CCCc8cc(C(=O)O)ccc87)cc6)C5)CC4)C3)cc1)=N[C@@H](C)c1nnc(C)n1-2` [IV-54], the GI50 in test [1] was less than 50 nM; in test [2] it was less than 50 nM; in test [3] it was 50 to 500 nM.

With `COc1ccc(-c2sc3cc(OC)ccc3c2C(=O)c2ccc(OCCN3CCC4(CC3)CC(Oc3ccc(C5=N[C@@H](Cc6ncco6)c6nnc(C)n6-c6sc(C)c(C)c65)cc3)C4)cc2)cc1` [IV-55], the values for the GI50 in test [1], in test [2] and in test [3] were less than 50 nM, less than 50 nM and 500 to 2500 nM, respectively.

With `Cc1sc2c(c1C)C(c1ccc(N3CC4(CCC(CN5CCC(c6ccc(C7=C(c8ccccc8Cl)CCCc8cc(C(=O)O)ccc87)cc6)CC5)CC4)C3)cc1)=N[C@@H](C)c1nnc(C)n1-2` [IV-56], the values for the GI50 in test [1], in test [2] and in test [3] were less than 50 nM, less than 50 nM and 50 to 500 nM, respectively.

On to `Cc1sc2c(c1C)C(c1ccc(N3CCC(O)(CN4CCN(c5ccc(C6=C(c7ccc(Cl)cc7)CCCc7cc(C(=O)O)ccc76)cc5)CC4)CC3)cc1)=N[C@@H](C)c1nnc(C)n1-2` [IV-57], for which the GI50 in test [1] was less than 50 nM; in test [2], less than 50 nM; in test [3], 500 to 2500 nM.

On to `Cc1sc2c(c1C)C(c1ccc(N3CC4(CC(CN5CCN(c6ccc(C7=C(c8ccccc8Cl)CCCc8cc(C(=O)O)ccc87)c(F)c6)CC5)C4)C3)cc1)=N[C@@H](C)c1nnc(C)n1-2` [IV-58], for which the GI50 in test [1] was less than 50 nM; in test [2], less than 50 nM; in test [3], 500 to 2500 nM.

For `Cc1sc2c(c1C)C(c1ccc(N3CC4(CC(CN5CCN(c6ccc(C7=C(c8ccccc8Cl)CCCc8cc(C(=O)O)ccc87)cc6)CC5)C4)C3)cc1)=N[C@@H](C)c1nnc(C)n1-2` [IV-59], the GI50 in test [1] is less than 50 nM; in test [2], less than 50 nM; in test [3], 500 to 2500 nM.

As for `Cc1sc2c(c1C)C(c1ccc(N3CCC(O)(CN4CCN(c5ccc(C6=C(c7ccccc7Cl)CCCc7cc(C(=O)O)ccc76)c(F)c5)CC4)CC3)cc1)=N[C@@H](Cc1ncco1)c1nnc(C)n1-2` [IV-60], the results for the GI50 in test [1], in test [2] and in test [3] were less than 50 nM, less than 50 nM and 50 to 500 nM, respectively.

As for `Cc1sc2c(c1C)C(c1ccc(N3CCC(O)(CN4CCN(c5ccc(C6=C(c7ccccc7Cl)CCCc7cc(C(=O)O)ccc76)cc5)CC4)CC3)c(Cl)c1)=N[C@@H](C)c1nnc(C)n1-2` [IV-61], the figures for the GI50 in test [1], in test [2] and in test [3] were less than 50 nM, less than 50 nM and 500 to 2500 nM, respectively.

As to `Cc1sc2c(c1C)C(c1ccc(C3CN(CC4CC(CN5CC(c6ccc(C7=C(c8ccccc8)CCCc8cc(C(=O)O)ccc87)cc6)C5)C4)C3)cc1)=N[C@@H](C)c1nnc(C)n1-2` (stereo partly drawn) [IV-62], the results for the GI50 in test [1], in test [2] and in test [3] were less than 50 nM, less than 50 nM and 500 to 2500 nM, respectively.

Take `Cc1sc2c(c1C)C(c1ccc(N3CCC(O)(CN4CCN(c5ccc(C6=C(c7ccccc7)CCCc7cc(B(O)O)ccc76)cc5)CC4)CC3)cc1)=N[C@@H](C)c1nnc(C)n1-2` [IV-63]: the GI50 in test [1] was less than 50 nM; in test [2] it was less than 50 nM; in test [3] it was 500 to 2500 nM.

For the molecule `Cc1cc(C2=N[C@@H](C)c3nnc(C)n3-c3sc(C)c(C)c32)ccc1N1CC(CN2CCN(CC3CN(c4ccc(C5=C(c6ccc(Cl)cc6)CCCc6cc(C(=O)O)ccc65)cc4)C3)CC2)C1` [IV-64], the figures for the GI50 in test [1], in test [2] and in test [3] were less than 50 nM, 50 to 500 nM and 500 to 2500 nM, respectively.

For the origin of these results see patent publication US12558428B2, “Heterobifunctional compounds and their use in treating disease” (Halda Therapeutics OpCo, Inc., priority 2024, dated 2026).
